Several values for one entry are separate records, joined by “and”; a condition that tells them apart may be missing. Equal values may be shown once. Read-outs that look alike come from different tables or passages of the source.
Key:
[1] = tested on: guinea pig peritoneal eosinophils; assay: Chemotactic and chemokinetic activities to leukotriene B4 of peritoneal eosinophils after i.p. pretreatment (Boyden chamber); assay type: in vivo, Cavia porcellus (Guinea Pig); conditions: for chemokinetic (B) activity to leukotriene B4 (0.1 uM), individual animals / chemotactic (A) activity to leukotriene B4 (0.1 uM), individual animals: guinea pig peritoneal eosinophils; for inhibition of eosinophil chemotactic and chemokinetic activities: i.p. pretreatment, n=3 per dose
Protocol: The animals used in this example were from the species Cavia porcellus (Guinea Pig). A total of 21 male guinea pigs weighing between 200-250 g were selected. These animals were manually randomized into 7 groups i.e. G1 and G2 (OmeGo Salmon oil 30 and 300 mg/kg), G3 and G4 (SEACOD 30 and 300 mg/kg), G5 and G6 were positive control (Fevipiprant 5 and 20 mg/kg) and G7 was negative control (linoleic acid 300 mg/kg) wherein each group consisted of 3 animals.
Guinea pigs were sensitized to create mild eosinphilia by intraperitoneal injection of Polymyxin B (1 mg/animal) once a week for 6 weeks. Polymyxin B was given by dissolving it in 0.9% saline solution. Each animal was injected with 0.5 mL of 0.9% saline containing 1 mg of Polymyxin B. In week 6, in addition to the Polymyxin B, animals were injected with test items belonging to their specific group, as shown in Table 5 below.
Animals were treated with Polymyxin B through an intraperitoneal injection. Along with Polymyxin B even the test items were given through the intraperitoneal route. In the 6th week animals were anesthetized using isoflurane and the intraperitoneal fluid was collected by injecting 50 mL of saline in the peritoneum cavity. After massaging the abdomen for 15 seconds the fluid was drained and collected in the centrifuge tubes. Around 30-35 mL of fluid was collected from each animal. This fluid was centrifuged for 10 mins (400×g 4° C.) and was resuspended in FBS (Fetal bovine serum) medium. Following this step, the fluid was recentrifuged for 10 min (400×g 4° C.) and the cell pellet was analyzed for chemotactic and chemokinetic responses of eosinophils to leukotriene B4 and cell counts using a 96-well microchemotaxis test chamber.
Eosinophils were recovered at greater than 90% purity using a modified procedure reported by Fukusa et. al. (Increased numbers of hypodense eosinophils in the blood of patients with bronchial asthma. Am. Rev. Respir. Dis. 1985; 132:981-985).
The animals were treated with Polymyxin B saline solution once every week for continuously 5 weeks and in the 6th week along with the Polymyxin B test item was given as per the groups. Each animal received 1 mg of Polymyxin B.
The chemotactic and chemokinetic activities were measured by the Boyden chamber method using a 96-well microchamber and expressed as the number of eosinophils counted on the membrane filter under ×400 magnification (cells/five fields). The chemokinetic activity to leukotriene B4 was examined by placing the same concentration of leukotriene B4 (0.1 μM) in both compartments of the chamber. Viability of the eosinophils was determined by the Trypan blue dye exclusion test after incubation for 90 min. All samples were assayed in duplicate. Blood was also collected on the same day and plasma was separated and stored at −20° C. for follow-on anti-inflammatory biomarker assays.

[2] = assay type: in vivo; conditions: for Mortality and Morbidity: No. of Incidence/No. of Animals: incidence of the observation 'No mortality/morbidity'
From the text: Clinical signs were observed after test item administration and all the other days throughout the study period for all the animals. The cage side observations included (but not limited to) changes in skin and fur, eyes and mucous membranes, as well as respiratory, circulatory, autonomic and central nervous system, somatomotor activity and behavior pattern.
Animals were weighed during randomization, at start of treatment and weekly thereafter, until the end of experimental period.
Raw Data were processed using Statistical Software Sigma Plot 14. The mean and Standard Deviation were calculated using the Software and all data were summarized in tabular form. All continuous data like the body weight was checked for their normality and for homogeneous data, ANOVA was used.

[3] = 20 mg (i.p.), compared to control

SMILES | chemokinetic (B) activity to leukotriene B4 (0.1 uM), individual animals ([1]; 5 mg/kg bw i.p.) | chemotactic (A) activity to leukotriene B4 (0.1 uM), individual animals ([1]; 5 mg/kg bw i.p.) | Maximum inhibition for chemokinesis [1, 3] [%] | Maximum inhibition for chemotaxis [1, 3] [%] | chemokinetic (B) activity to leukotriene B4 (0.1 uM), individual animals ([1]; 20 mg/kg bw i.p.) | chemotactic (A) activity to leukotriene B4 (0.1 uM), individual animals ([1]; 20 mg/kg bw i.p.) | inhibition of eosinophil chemotactic and chemokinetic activities [1] | Mortality and Morbidity: Observation ([2]; 5 mg/kg bw) | Mortality and Morbidity: No. of Incidence/No. of Animals ([2]; 5 mg/kg bw) | Mortality and Morbidity: Observation ([2]; 20 mg/kg bw) | Mortality and Morbidity: No. of Incidence/No. of Animals ([2]; 20 mg/kg bw) | chemokinetic (B) activity to leukotriene B4 (0.1 uM), individual animals ([1]; 300 mg/kg bw i.p.) | chemotactic (A) activity to leukotriene B4 (0.1 uM), individual animals ([1]; 300 mg/kg bw i.p.)
Cc1c(CC(=O)O)c2cccnc2n1Cc1ccc(S(C)(=O)=O)cc1C(F)(F)F [Fevipiprant] | 290 Cells/5 fields (2×) and 280 Cells/5 fields | 425 Cells/5 fields and 390 Cells/5 fields and 420 Cells/5 fields | 51.7 | 68.0 | 160 Cells/5 fields and 175 Cells/5 fields and 165 Cells/5 fields | 320 Cells/5 fields and 325 Cells/5 fields and 330 Cells/5 fields | significantly inhibited | No mortality/morbidity | 03/03 | No mortality/morbidity | 03/03 |  | 
CCCCC/C=C\C/C=C\CCCCCCCC(=O)O [Linoleic acid] |  |  |  |  |  |  | did not inhibit |  |  |  |  | 335 Cells/5 fields and 360 Cells/5 fields and 340 Cells/5 fields | 770 Cells/5 fields and 790 Cells/5 fields and 760 Cells/5 fields
